Test results: patent US20060257436A1, “Skin preparation composition for external use” (Shiseido Company, Ltd., priority 2003, published 2006)
Values after ≈ are worked out from the molar mass of the structure shown. Where two headings read alike, the source gives them in different places.

How the values were obtained:
[1] = in vivo
Protocol: (§2) The 3-hexine-2,5-diol of the present invention was tested for safety.
(§3) The glycerol derivatives of the present invention i.e., 3-phenoxy-1,2-propane diol and 3-benzyloxy-1,2-propane diol, were tested for safety.
(§4) The 2,2-dimethyl-1-phenyl-1,3-propanediol of the present invention was tested for safety.

[2] = in vivo; remark: listed apart in the source
Protocol: as §2, §3, §4

[3] = in vivo; remark: listed apart in the source
Protocol: as §2, §3, §4

[4] = test system: Escherichia coli (ATCC8739); assay: Minimum inhibiting concentration (MIC), agar plate method; assay type: cell-based
Protocol: (§1) Using the agar plate method, for bacteria, the following various bacteria were inoculated in SCD agar media (made by Eiken) containing 3-hexine-2,5-diol in different concentrations and cultured at 30° C. for 24 hours. […] Further, for fungi, the following various bacteria were inoculated in a potato dextrose agar media containing 3-hexine-2,5-diol in different concentrations and cultured at 25° C. for 48 hours. […] The same was conducted for methyl paraoxybenzoate methyl. The results of the judgment are shown in Table 1 based on the following evaluation criteria:
as §1, with “III-1” for “1”
as §1, with “media containing the test compound, in different” for “media containing 3-hexine-2,5-diol in different”, “in Table VII-1 based on” for “in Table 1 based on”, “evaluation criteria: […]” for “evaluation criteria:”

[5] = test system: Aspergillus niger (ATCC16404); assay: as above; assay type: cell-based
Protocol: as §1
as §1, with “III-1” for “1”
as §1, with “media containing the test compound, in different” for “media containing 3-hexine-2,5-diol in different”, “in Table VII-1 based on” for “in Table 1 based on”, “evaluation criteria: […]” for “evaluation criteria:”

[6] = test system: Candida albicans (ATCC10231); assay: as above; assay type: cell-based
Protocol: as §1
as §1, with “III-1” for “1”
as §1, with “media containing the test compound, in different” for “media containing 3-hexine-2,5-diol in different”, “in Table VII-1 based on” for “in Table 1 based on”, “evaluation criteria: […]” for “evaluation criteria:”

[7] = test system: Pseudomonas aeuginosa (ATCC15442); assay: as above; assay type: cell-based
Protocol: as §1
as §1, with “III-1” for “1”
as §1, with “media containing the test compound, in different” for “media containing 3-hexine-2,5-diol in different”, “in Table VII-1 based on” for “in Table 1 based on”, “evaluation criteria: […]” for “evaluation criteria:”

[8] = test system: Staphylococcus aureus (ATCC6538); assay: as above; assay type: cell-based
Protocol: as §1
as §1, with “III-1” for “1”
as §1, with “media containing the test compound, in different” for “media containing 3-hexine-2,5-diol in different”, “in Table VII-1 based on” for “in Table 1 based on”, “evaluation criteria: […]” for “evaluation criteria:”

[9] = Primary skin irritation test; conditions: in vivo
Protocol: as §2, §3, §4

[10] = Genetic toxicity test
Protocol: as §2, §3, §4

[11] = Skin sensitization test; conditions: in vivo
Protocol: as §2, §3, §4

[12] = Continuous skin irritation test; conditions: in vivo
Protocol: as §2, §3, §4

[13] = Escherichia coli (ATCC8739), read-out: Antimicrobial effect (minimum inhibiting concentration rank)
[14] = Aspergillus niger (ATCC16404), read-out: Antimicrobial effect (minimum inhibiting concentration rank)
[15] = Candida albicans (ATCC10231), read-out: Antimicrobial effect (minimum inhibiting concentration rank)
[16] = Pseudomonas aeuginosa (ATCC15442), read-out: Antimicrobial effect (minimum inhibiting concentration rank)
[17] = Staphylococcus aureus (ATCC6538), read-out: Antimicrobial effect (minimum inhibiting concentration rank)
[18] = Table I-1, SCD agar media, 30° C., 24 hours
[19] = Table I-1, potato dextrose agar media, 25° C., 48 hours
[20] = Table III-1, SCD agar media, 30° C., 24 hours
[21] = Table III-1, potato dextrose agar media, 25° C., 48 hours

Question: Which “skin sensitization test result” value [1] does the source give for `CC(C)(CO)C(O)c1ccccc1` (stereo not drawn) here?
Answer: The value was “negative”.

Question: What about the “toxicity (single administration toxicity test)” value (single administration) of the same compound?
Answer: Its value is “extremely weak”.

Question: What about the “skin irritability (primary skin irritation test)” value [2] of the same compound?
Answer: The value was “extremely weak”.

Question: And the “skin irritability (continuous skin irritation test)” value [3]?
Answer: The value was “extremely weak”.

Question: What about the MIC [4, 13] of the same compound?
Answer: Its MIC is < 1000 µg/mL.

Question: What about the MIC [5, 14] of the same compound?
Answer: Its MIC is < 1000 µg/mL.

Question: And the MIC [6, 15]?
Answer: Its MIC is < 1000 µg/mL.

Question: And the MIC [7, 16]?
Answer: The MIC was < 1000 µg/mL.

Question: What about the MIC [8, 17] of the same compound?
Answer: Its MIC is < 1000 µg/mL.

Question: With `OCC(O)COCc1ccccc1` (stereo not drawn) [3-Benzyloxy-1,2-propane diol, 3-benzyloxy-1,2-propanediol] as the compound, how does the “skin sensitization test result” value [1] read?
Answer: Its value is “negative”.

Question: And the “toxicity (single administration toxicity test)” value (single administration)?
Answer: The value was “extremely weak”.

Question: What about the “skin irritability (primary skin irritation test)” value [2] of the same compound?
Answer: The value was “extremely weak”.

Question: What about the “skin irritability (continuous skin irritation test)” value [3] of the same compound?
Answer: Its value is “extremely weak”.

Question: What about the MIC ([4]; Escherichia coli, ATCC8739, Table III-1, SCD agar media, 30° C., 24 hours, read-out: Antimicrobial effect: minimum inhibiting concentration (MIC)) of the same compound?
Answer: The MIC was < 1000 µg/mL.

Question: And the MIC ([5]; Aspergillus niger, ATCC16404, Table III-1, potato dextrose agar media, 25° C., 48 hours, read-out: Antimicrobial effect: minimum inhibiting concentration (MIC))?
Answer: The MIC was < 1000 µg/mL.

Question: What about the MIC ([6]; Candida albicans, ATCC10231, Table III-1, potato dextrose agar media, 25° C., 48 hours, read-out: Antimicrobial effect: minimum inhibiting concentration (MIC)) of the same compound?
Answer: The MIC was < 1000 µg/mL.

Question: What about the MIC ([7]; Pseudomonas, ATCC15442, Table III-1, SCD agar media, 30° C., 24 hours, read-out: Antimicrobial effect: minimum inhibiting concentration (MIC)) of the same compound?
Answer: Its MIC is < 1000 µg/mL.

Question: And the MIC ([8]; Staphylococcus aureus, ATCC6538, Table III-1, SCD agar media, 30° C., 24 hours, read-out: Antimicrobial effect: minimum inhibiting concentration (MIC))?
Answer: The MIC was < 1000 µg/mL.

Question: With `OCC(O)COc1ccccc1` (stereo not drawn) [3-Phenoxy-1,2-propane diol, 3-phenoxy-1,2-propanediol] as the compound, how does the “skin sensitization test result” value [1] read?
Answer: Its value is “negative”.

Question: And the “toxicity (single administration toxicity test)” value (in vivo)?
Answer: Its value is “extremely weak”.

Question: What about the “skin irritability (primary skin irritation test)” value [2] of the same compound?
Answer: Its value is “extremely weak”.

Question: What about the “skin irritability (continuous skin irritation test)” value [3] of the same compound?
Answer: Its value is “extremely weak”.

Question: What about the MIC ([4]; Escherichia coli, ATCC8739, 24 h, read-out: Antimicrobial effect: minimum inhibiting concentration (MIC)) of the same compound?
Answer: Its MIC is < 1000 µg/mL.

Question: And the MIC ([5]; Aspergillus niger, ATCC16404, 48 h, read-out: Antimicrobial effect: minimum inhibiting concentration (MIC))?
Answer: The MIC was < 1000 µg/mL.

Question: What about the MIC ([6]; Candida albicans, ATCC10231, 48 h, read-out: Antimicrobial effect: minimum inhibiting concentration (MIC)) of the same compound?
Answer: The MIC was < 1000 µg/mL.

Question: And the MIC ([7]; Pseudomonas, ATCC15442, 24 h, read-out: Antimicrobial effect: minimum inhibiting concentration (MIC))?
Answer: Its MIC is < 1000 µg/mL.

Question: What about the MIC ([8]; Staphylococcus aureus, ATCC6538, 24 h, read-out: Antimicrobial effect: minimum inhibiting concentration (MIC)) of the same compound?
Answer: The MIC was < 1000 µg/mL.

Question: With `CC(O)C#CC(C)O` (stereo not drawn) [3-hexine-2,5-diol] as the compound, how does the “toxicity (single administration toxicity test)” value (single administration) read?
Answer: Its value is “extremely weak”.

Question: And the “skin irritability (primary skin irritation test)” value [9]?
Answer: Its value is “extremely weak”.

Question: And the “genetic toxicity test result” value [10]?
Answer: Its value is “negative”.

Question: And the “skin sensitization test result” value [11]?
Answer: The value was “negative”.

Question: What about the “Antimicrobial effect: minimum inhibiting concentration (MIC)” value [4, 18] of the same compound?
Answer: Its value is “A (Minimum inhibiting concentration of less than 1000 ppm)”.

Question: What about the “Antimicrobial effect: minimum inhibiting concentration (MIC)” value [5, 19] of the same compound?
Answer: The value was “A (Minimum inhibiting concentration of less than 1000 ppm)”.

Question: And the “Antimicrobial effect: minimum inhibiting concentration (MIC)” value [6, 19]?
Answer: Its value is “A (Minimum inhibiting concentration of less than 1000 ppm)”.

Question: What about the “Antimicrobial effect: minimum inhibiting concentration (MIC)” value [7, 18] of the same compound?
Answer: Its value is “A (Minimum inhibiting concentration of less than 1000 ppm)”.

Question: And the “Antimicrobial effect: minimum inhibiting concentration (MIC)” value [8, 18]?
Answer: Its value is “A (Minimum inhibiting concentration of less than 1000 ppm)”.

Question: And the “skin irritability (continuous skin irritation test)” value [12]?
Answer: Its value is “extremely weak”.

Question: With `COC(=O)c1ccc(O)cc1` [Methyl paraoxybenzoate, reference compound] as the compound, how does the MIC ([4]; Escherichia coli (ATCC8739), read-out: Antimicrobial effect (minimum inhibiting concentration class)) read?
Answer: Its MIC is 1000 to 5000 µg/mL (≈ 6.57 to 32.9 mM).

Question: What about the MIC [4, 13] of the same compound?
Answer: Its MIC is 1000 to 5000 µg/mL (≈ 6.57 to 32.9 mM).

Question: And the MIC ([4]; Escherichia coli, ATCC8739, Table I-1, SCD agar media, 30° C., 24 hours, read-out: Antimicrobial effect: minimum inhibiting concentration (MIC))?
Answer: The MIC was 1000 to 5000 µg/mL (≈ 6.57 to 32.9 mM).

Question: And the “Antimicrobial effect: minimum inhibiting concentration (MIC)” value [4, 20]?
Answer: Its value is “B (Minimum inhibiting concentration of 1000 ppm to less than 5000 ppm)”.

Question: What about the MIC ([5]; Aspergillus niger (ATCC16404), read-out: Antimicrobial effect (minimum inhibiting concentration class)) of the same compound?
Answer: Its MIC is 1000 to 5000 µg/mL (≈ 6.57 to 32.9 mM).

Question: And the MIC [5, 14]?
Answer: Its MIC is 1000 to 5000 µg/mL (≈ 6.57 to 32.9 mM).

Question: What about the MIC ([5]; Aspergillus niger, ATCC16404, Table I-1, potato dextrose agar media, 25° C., 48 hours, read-out: Antimicrobial effect: minimum inhibiting concentration (MIC)) of the same compound?
Answer: Its MIC is 1000 to 5000 µg/mL (≈ 6.57 to 32.9 mM).

Question: What about the “Antimicrobial effect: minimum inhibiting concentration (MIC)” value [5, 21] of the same compound?
Answer: Its value is “B (Minimum inhibiting concentration of 1000 ppm to less than 5000 ppm)”.

Question: And the MIC ([6]; Candida albicans (ATCC10231), read-out: Antimicrobial effect (minimum inhibiting concentration class))?
Answer: The MIC was 1000 to 5000 µg/mL (≈ 6.57 to 32.9 mM).

Question: And the MIC [6, 15]?
Answer: The MIC was 1000 to 5000 µg/mL (≈ 6.57 to 32.9 mM).

Question: What about the MIC ([6]; Candida albicans, ATCC10231, Table I-1, potato dextrose agar media, 25° C., 48 hours, read-out: Antimicrobial effect: minimum inhibiting concentration (MIC)) of the same compound?
Answer: Its MIC is 1000 to 5000 µg/mL (≈ 6.57 to 32.9 mM).

Question: And the “Antimicrobial effect: minimum inhibiting concentration (MIC)” value [6, 21]?
Answer: Its value is “B (Minimum inhibiting concentration of 1000 ppm to less than 5000 ppm)”.

Question: And the MIC ([7]; Pseudomonas aeuginosa (ATCC15442), read-out: Antimicrobial effect (minimum inhibiting concentration class))?
Answer: The MIC was 5000 to 10000 µg/mL (≈ 32.9 to 65.7 mM).

Question: What about the MIC [7, 16] of the same compound?
Answer: The MIC was 5000 to 10000 µg/mL (≈ 32.9 to 65.7 mM).

Question: And the MIC ([7]; Pseudomonas, ATCC15442, Table I-1, SCD agar media, 30° C., 24 hours, read-out: Antimicrobial effect: minimum inhibiting concentration (MIC))?
Answer: Its MIC is 5000 to 10000 µg/mL (≈ 32.9 to 65.7 mM).

Question: And the “Antimicrobial effect: minimum inhibiting concentration (MIC)” value [7, 20]?
Answer: The value was “C (Minimum inhibiting concentration of 5000 ppm to less than 10000 ppm)”.

Question: And the MIC ([8]; Staphylococcus aureus (ATCC6538), read-out: Antimicrobial effect (minimum inhibiting concentration class))?
Answer: The MIC was 1000 to 5000 µg/mL (≈ 6.57 to 32.9 mM).

Question: And the MIC [8, 17]?
Answer: The MIC was 1000 to 5000 µg/mL (≈ 6.57 to 32.9 mM).

Question: And the MIC ([8]; Staphylococcus aureus, ATCC6538, Table I-1, SCD agar media, 30° C., 24 hours, read-out: Antimicrobial effect: minimum inhibiting concentration (MIC))?
Answer: Its MIC is 1000 to 5000 µg/mL (≈ 6.57 to 32.9 mM).

Question: What about the “Antimicrobial effect: minimum inhibiting concentration (MIC)” value [8, 20] of the same compound?
Answer: Its value is “B (Minimum inhibiting concentration of 1000 ppm to less than 5000 ppm)”.
